Data reported in the supplement of paper PMC9013687.

Assays:
[1] = system: Danio rerio embryo; details: exposure time: 4 dpf
Protocol: (§1)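 Zebrafish embryos (UFZ-OBI strain) were exposed from 2 hpf for 48 h (2 dpf) or 96 h (4 dpf) at 28 °C; spontaneous tail coiling was scored at 25 hpf. Morphological features from automated image analysis (FishInspector), heart rate and locomotor response were fitted with drc models. Quantal endpoints were dichotomised at 2.5 SD from controls and fitted with a log-logistic model; heart rate, pigmentation and STC were normalised to the replicate control mean. Betamethasone was tested as betamethasone dipropionate, diflorasone as diflorasone diacetate.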

[2] = system: Danio rerio embryo
Protocol: as §1

[3] = system: Danio rerio embryo; details: exposure time: 4 dpf; remark: listed apart in the source
Protocol: as §1

[4] = system: Danio rerio embryo; remark: listed apart in the source
Protocol: as §1

[5] = system: Danio rerio embryo; assay: EC50 Eye size_Decrease; details: exposure time: 2 dpf
Protocol: as §1

[6] = system: Danio rerio embryo; assay: EC50 Curvature_Increase; details: exposure time: 2 dpf
Protocol: as §1

[7] = system: Danio rerio embryo; assay: EC50 Body length_Decrease
Protocol: as §1

[8] = system: Danio rerio embryo; assay: EC50 Bladder size_Decrease; details: exposure time: 4 dpf
Protocol: as §1

[9] = system: Danio rerio embryo; assay: EC50 Pericard size_Increase; details: exposure time: 2 dpf
Protocol: as §1

[10] = system: Danio rerio embryo; assay: EC50 Yolk sac size_Increase; details: exposure time: 4 dpf
Protocol: as §1

[11] = system: Danio rerio embryo; assay: EC50 Eye-jaw distance_Decrease; details: exposure time: 4 dpf
Protocol: as §1

[12] = system: Danio rerio embryo; assay: EC10 LMR dark; higher = less potent; details: exposure time: 4 dpf
Protocol: as §1

[13] = system: Danio rerio embryo; assay: EC20 LMR dark; higher = less potent; details: exposure time: 4 dpf
Protocol: as §1

[14] = system: Danio rerio embryo; assay: EC10 Heart rate; higher = less potent
Protocol: as §1

[15] = system: Danio rerio embryo; assay: EC10 Lack of SB; higher = less potent; details: exposure time: 4 dpf
Protocol: as §1

[16] = system: Danio rerio embryo; assay: EC20 Lack of SB; higher = less potent; details: exposure time: 4 dpf
Protocol: as §1

[17] = system: Danio rerio embryo; assay: EC20 Any effect; higher = less potent
Protocol: as §1

[18] = system: Danio rerio embryo; assay: EC10 Any effect; higher = less potent
Protocol: as §1

[19] = system: Danio rerio embryo; assay: EC20 Heart rate; higher = less potent
Protocol: as §1

[20] = system: Danio rerio embryo; assay: EC20 Eye size_Decrease; higher = less potent; details: exposure time: 2 dpf
Protocol: as §1

[21] = system: Danio rerio embryo; assay: EC10 Eye size_Decrease; higher = less potent; details: exposure time: 2 dpf
Protocol: as §1

[22] = system: Danio rerio embryo; assay: EC10 Curvature_Increase; higher = less potent; details: exposure time: 2 dpf
Protocol: as §1

[23] = system: Danio rerio embryo; assay: EC20 Curvature_Increase; higher = less potent; details: exposure time: 2 dpf
Protocol: as §1

[24] = system: Danio rerio embryo; assay: EC20 Body length_Decrease; higher = less potent
Protocol: as §1

[25] = system: Danio rerio embryo; assay: EC10 Body length_Decrease; higher = less potent
Protocol: as §1

[26] = system: Danio rerio embryo; assay: EC10 Pigmentation increase; higher = less potent; details: exposure time: 4 dpf
Protocol: as §1

[27] = system: Danio rerio embryo; assay: EC10 Bladder size_Decrease; higher = less potent; details: exposure time: 4 dpf
Protocol: as §1

[28] = system: Danio rerio embryo; assay: EC20 Pigmentation increase; higher = less potent; details: exposure time: 4 dpf
Protocol: as §1

[29] = system: Danio rerio embryo; assay: EC20 Bladder size_Decrease; higher = less potent; details: exposure time: 4 dpf
Protocol: as §1

[30] = system: Danio rerio embryo; assay: EC20 Yolk sac size_Increase; higher = less potent; details: exposure time: 4 dpf
Protocol: as §1

[31] = system: Danio rerio embryo; assay: EC20 Pericard size_Increase; higher = less potent; details: exposure time: 2 dpf
Protocol: as §1

[32] = system: Danio rerio embryo; assay: EC10 Yolk sac size_Increase; higher = less potent; details: exposure time: 4 dpf
Protocol: as §1

[33] = system: Danio rerio embryo; assay: EC10 Pericard size_Increase; higher = less potent; details: exposure time: 2 dpf
Protocol: as §1

[34] = system: Danio rerio embryo; assay: EC20 Eye-jaw distance_Decrease; higher = less potent; details: exposure time: 4 dpf
Protocol: as §1

[35] = system: Danio rerio embryo; assay: EC10 Eye-jaw distance_Decrease; higher = less potent; details: exposure time: 4 dpf
Protocol: as §1

[36] = system: Danio rerio embryo; assay: spontaneous tail coiling frequency (coils/min/embryo); higher = more spontaneous movement; details: 25 hpf
Protocol: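 Spontaneous tail coilings of zebrafish embryos exposed from 2 hpf were recorded at 24-25 hpf in 1-min videos and detected by a KNIME workflow from grey-value variance. Betamethasone was tested as the dipropionate, diflorasone as the diacetate.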

CC1(C)OC(=O)C(OCC2CC2)=C1c1ccc(S(C)(=O)=O)cc1 [Firocoxib]
Details	EC10 Bladder size Decrease [µM]	EC10 Curvature Increase [µM]	EC10 Eye size Decrease [µM]	EC10 Eye-jaw distance Decrease [µM]	EC10 LMR dark [µM]	EC10 Lack of SB [µM]	EC10 Pericard size Increase [µM]	EC10 Pigmentation increase [µM]	EC10 Yolk sac size Increase [µM]	EC20 Bladder size Decrease [µM]	EC20 Curvature Increase [µM]	EC20 Eye size Decrease [µM]	EC20 Eye-jaw distance Decrease [µM]	EC20 LMR dark [µM]	EC20 Lack of SB [µM]	EC20 Pericard size Increase [µM]	EC20 Pigmentation increase [µM]	EC20 Yolk sac size Increase [µM]	EC50 Bladder size Decrease [µM]	EC50 Curvature Increase [µM]	EC50 Eye size Decrease [µM]	EC50 Eye-jaw distance Decrease [µM]	EC50 LMR dark [µM]	EC50 Lack of SB [µM]	EC50 Pericard size Increase [µM]	EC50 Yolk sac size Increase [µM]
[1]	–	–	–	–	–	–	–	–	–	–	–	–	–	–	–	–	–	–	–	–	–	–	–	64.6	–	–
[3]	–	–	–	–	–	–	–	–	–	–	–	–	–	–	–	–	–	–	–	–	–	–	53.7	–	–	–
[5]	–	–	–	–	–	–	–	–	–	–	–	–	–	–	–	–	–	–	–	–	128	–	–	–	–	–
[6]	–	–	–	–	–	–	–	–	–	–	–	–	–	–	–	–	–	–	–	109	–	–	–	–	–	–
[8]	–	–	–	–	–	–	–	–	–	–	–	–	–	–	–	–	–	–	56.3	–	–	–	–	–	–	–
[9]	–	–	–	–	–	–	–	–	–	–	–	–	–	–	–	–	–	–	–	–	–	–	–	–	108	–
[10]	–	–	–	–	–	–	–	–	–	–	–	–	–	–	–	–	–	–	–	–	–	–	–	–	–	128
[11]	–	–	–	–	–	–	–	–	–	–	–	–	–	–	–	–	–	–	–	–	–	123	–	–	–	–
[12]	–	–	–	–	13.9	–	–	–	–	–	–	–	–	–	–	–	–	–	–	–	–	–	–	–	–	–
[13]	–	–	–	–	–	–	–	–	–	–	–	–	–	22.9	–	–	–	–	–	–	–	–	–	–	–	–
[15]	–	–	–	–	–	34.7	–	–	–	–	–	–	–	–	–	–	–	–	–	–	–	–	–	–	–	–
[16]	–	–	–	–	–	–	–	–	–	–	–	–	–	–	43.7	–	–	–	–	–	–	–	–	–	–	–
[20]	–	–	–	–	–	–	–	–	–	–	–	93.3	–	–	–	–	–	–	–	–	–	–	–	–	–	–
[21]	–	–	77.4	–	–	–	–	–	–	–	–	–	–	–	–	–	–	–	–	–	–	–	–	–	–	–
[22]	–	74.2	–	–	–	–	–	–	–	–	–	–	–	–	–	–	–	–	–	–	–	–	–	–	–	–
[23]	–	–	–	–	–	–	–	–	–	–	85.4	–	–	–	–	–	–	–	–	–	–	–	–	–	–	–
[26]	–	–	–	–	–	–	–	83	–	–	–	–	–	–	–	–	–	–	–	–	–	–	–	–	–	–
[27]	31.5	–	–	–	–	–	–	–	–	–	–	–	–	–	–	–	–	–	–	–	–	–	–	–	–	–
[28]	–	–	–	–	–	–	–	–	–	–	–	–	–	–	–	–	100	–	–	–	–	–	–	–	–	–
[29]	–	–	–	–	–	–	–	–	–	39	–	–	–	–	–	–	–	–	–	–	–	–	–	–	–	–
[30]	–	–	–	–	–	–	–	–	–	–	–	–	–	–	–	–	–	68.9	–	–	–	–	–	–	–	–
[31]	–	–	–	–	–	–	–	–	–	–	–	–	–	–	–	58.3	–	–	–	–	–	–	–	–	–	–
[32]	–	–	–	–	–	–	–	–	48.1	–	–	–	–	–	–	–	–	–	–	–	–	–	–	–	–	–
[33]	–	–	–	–	–	–	40.6	–	–	–	–	–	–	–	–	–	–	–	–	–	–	–	–	–	–	–
[34]	–	–	–	–	–	–	–	–	–	–	–	–	93.2	–	–	–	–	–	–	–	–	–	–	–	–	–
[35]	–	–	–	79.2	–	–	–	–	–	–	–	–	–	–	–	–	–	–	–	–	–	–	–	–	–	–

Details	EC10 Any effect [µM]	EC10 Body length Decrease [µM]	EC10 Heart rate [µM]	EC20 Any effect [µM]	EC20 Body length Decrease [µM]	EC20 Heart rate [µM]	EC50 Any effect [µM]	EC50 Body length Decrease [µM]	EC50 Heart rate [µM]	spontaneous tail coiling frequency
[2], exposure time: 2 dpf	–	–	–	–	–	–	121	–	–	–
[2], exposure time: 4 dpf	–	–	–	–	–	–	147	–	–	–
[4], exposure time: 2 dpf	–	–	–	–	–	–	–	–	181	–
[4], exposure time: 4 dpf	–	–	–	–	–	–	–	–	56.2	–
[7], exposure time: 2 dpf	–	–	–	–	–	–	–	109	–	–
[7], exposure time: 4 dpf	–	–	–	–	–	–	–	113	–	–
[14], exposure time: 2 dpf	–	–	86.2	–	–	–	–	–	–	–
[14], exposure time: 4 dpf	–	–	31.2	–	–	–	–	–	–	–
[17], exposure time: 2 dpf	–	–	–	73.7	–	–	–	–	–	–
[17], exposure time: 4 dpf	–	–	–	85.4	–	–	–	–	–	–
[18], exposure time: 2 dpf	55.3	–	–	–	–	–	–	–	–	–
[18], exposure time: 4 dpf	62.1	–	–	–	–	–	–	–	–	–
[19], exposure time: 2 dpf	–	–	–	–	–	113	–	–	–	–
[19], exposure time: 4 dpf	–	–	–	–	–	38.8	–	–	–	–
[24], exposure time: 2 dpf	–	–	–	–	82.7	–	–	–	–	–
[24], exposure time: 4 dpf	–	–	–	–	94.5	–	–	–	–	–
[25], exposure time: 2 dpf	–	70.3	–	–	–	–	–	–	–	–
[25], exposure time: 4 dpf	–	85	–	–	–	–	–	–	–	–
[36], 14.9 µM	–	–	–	–	–	–	–	–	–	2.83
[36], 29.7 µM	–	–	–	–	–	–	–	–	–	2.54
[36], 59.4 µM	–	–	–	–	–	–	–	–	–	3.5
[36], 59.5 µM	–	–	–	–	–	–	–	–	–	2.46
[36], 89.2 µM	–	–	–	–	–	–	–	–	–	2.31
[36], 104 µM	–	–	–	–	–	–	–	–	–	3
[36], 133.8 µM	–	–	–	–	–	–	–	–	–	3.06
